Experimental data taken from ChEMBL document CHEMBL1909046, “DrugMatrix in vitro pharmacology data”.

Each compound was assayed against T1, Alpha-2A adrenergic receptor (Homo sapiens, UniProt P08913). Details: sf9.
T1 sequence (P08913 whole entry): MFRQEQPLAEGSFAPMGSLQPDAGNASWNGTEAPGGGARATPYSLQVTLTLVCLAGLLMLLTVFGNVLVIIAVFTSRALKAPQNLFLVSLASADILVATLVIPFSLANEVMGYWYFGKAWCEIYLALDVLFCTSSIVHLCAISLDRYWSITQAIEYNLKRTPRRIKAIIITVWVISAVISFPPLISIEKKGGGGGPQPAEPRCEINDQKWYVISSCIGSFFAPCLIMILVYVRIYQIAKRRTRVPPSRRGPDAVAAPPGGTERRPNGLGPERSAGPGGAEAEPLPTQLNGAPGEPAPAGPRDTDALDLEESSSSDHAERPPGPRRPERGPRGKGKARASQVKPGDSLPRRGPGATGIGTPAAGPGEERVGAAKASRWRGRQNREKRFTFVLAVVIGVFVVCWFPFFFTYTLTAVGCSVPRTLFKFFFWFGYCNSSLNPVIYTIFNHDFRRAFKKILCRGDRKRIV
Type: cell membranes, Sf9, Membrane
Note: in other assays of this panel Not Active means under 50% inhibition at 10 µM.

Row | Compound | IC50 | Ki
1 | C[S+]([O-])c1ccc(-c2nc(-c3ccncc3)c(-c3ccc(F)cc3)[nH]2)cc1 (centres undefined) [SB-203580] | Not Active | 
2 | O=C1C[C@@H]2OCC=C3CN4CC[C@]56c7ccccc7N1[C@H]5[C@H]2[C@H]3C[C@H]46 [STRYCHNINE] | Not Active | 
3 | C[N+](C)(C)CCOC(=O)CCC(=O)OCC[N+](C)(C)C.[Cl-].[Cl-] [SUCCINYLCHOLINE CHLORIDE] | Not Active | 
4 | Nc1ccc(S(=O)(=O)NC(=O)c2ccccc2)cc1 [SULFABENZAMIDE] | Not Active | 
5 | O=c1[nH]c(=O)n(C2CCCO2)cc1F (centres undefined) [TEGAFUR] | Not Active | 
6 | CC(=N)S [THIOACETAMIDE] | Not Active | 
7 | Cc1ccc(C(=O)c2ccc(CC(=O)O)n2C)cc1 [TOLMETIN] | Not Active | 
8 | CC(=O)OCC(COC(C)=O)OC(C)=O [TRIACETIN] | Not Active | 
9 | CN1CCN(CCCN2c3ccccc3Sc3ccc(C(F)(F)F)cc32)CC1 [TRIFLUOPERAZINE] | Not Active | 
10 | TRANSPLATIN | Not Active | Not Active
11 | ZIRCONIUM(IV) CHLORIDE | Not Active | Not Active

The compounds below were run against Substance-P receptor (Homo sapiens, UniProt P25103). Details: cho.
Type: cell membranes, CHO, Membrane

Chain of Substance-P receptor (P25103 whole entry): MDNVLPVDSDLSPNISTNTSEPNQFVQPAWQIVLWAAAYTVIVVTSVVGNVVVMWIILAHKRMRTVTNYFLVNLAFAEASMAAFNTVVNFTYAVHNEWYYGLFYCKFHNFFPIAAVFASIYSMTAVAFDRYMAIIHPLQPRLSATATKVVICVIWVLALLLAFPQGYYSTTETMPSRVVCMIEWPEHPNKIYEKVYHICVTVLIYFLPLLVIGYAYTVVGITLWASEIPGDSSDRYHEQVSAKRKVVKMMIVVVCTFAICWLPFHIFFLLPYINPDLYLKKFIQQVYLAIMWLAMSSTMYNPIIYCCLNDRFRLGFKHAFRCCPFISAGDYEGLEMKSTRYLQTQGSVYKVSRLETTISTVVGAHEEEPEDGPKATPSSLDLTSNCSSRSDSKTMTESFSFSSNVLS

Row | Compound | IC50 | Ki
12 | CN1[C@@H]2CC[C@H]1C[C@@H](OC(c1ccccc1)c1ccccc1)C2 [BENZTROPINE] | Not Active | 
13 | CN1CCN(C2=Nc3cc(Cl)ccc3Nc3ccccc32)CC1 [CLOZAPINE] | Not Active | 
14 | OCCOCCN1CCN(C2=Nc3ccccc3Sc3ccccc32)CC1 [QUETIAPINE] | Not Active | 
15 | C[S+]([O-])c1ccc(-c2nc(-c3ccncc3)c(-c3ccc(F)cc3)[nH]2)cc1 (centres undefined) [SB-203580] | Not Active | 
16 | O=C1C[C@@H]2OCC=C3CN4CC[C@]56c7ccccc7N1[C@H]5[C@H]2[C@H]3C[C@H]46 [STRYCHNINE] | Not Active | 
17 | C[N+](C)(C)CCOC(=O)CCC(=O)OCC[N+](C)(C)C.[Cl-].[Cl-] [SUCCINYLCHOLINE CHLORIDE] | Not Active | 
18 | Nc1ccc(S(=O)(=O)NC(=O)c2ccccc2)cc1 [SULFABENZAMIDE] | Not Active | 
19 | O=c1[nH]c(=O)n(C2CCCO2)cc1F (centres undefined) [TEGAFUR] | Not Active | 
20 | CC(=N)S [THIOACETAMIDE] | Not Active | 
21 | Cc1ccc(C(=O)c2ccc(CC(=O)O)n2C)cc1 [TOLMETIN] | Not Active | 
22 | CC(=O)OCC(COC(C)=O)OC(C)=O [TRIACETIN] | Not Active | 
23 | CN1CCN(CCCN2c3ccccc3Sc3ccc(C(F)(F)F)cc32)CC1 [TRIFLUOPERAZINE] | Not Active | 
24 | TRANSPLATIN | Not Active | Not Active
25 | ZIRCONIUM(IV) CHLORIDE | Not Active | Not Active

These compounds were tested against Melanocortin receptor 3 (Homo sapiens, UniProt P41968). Details: hek293.
Type: cell membranes, Membrane

Chain of Melanocortin receptor 3 (P41968 whole entry): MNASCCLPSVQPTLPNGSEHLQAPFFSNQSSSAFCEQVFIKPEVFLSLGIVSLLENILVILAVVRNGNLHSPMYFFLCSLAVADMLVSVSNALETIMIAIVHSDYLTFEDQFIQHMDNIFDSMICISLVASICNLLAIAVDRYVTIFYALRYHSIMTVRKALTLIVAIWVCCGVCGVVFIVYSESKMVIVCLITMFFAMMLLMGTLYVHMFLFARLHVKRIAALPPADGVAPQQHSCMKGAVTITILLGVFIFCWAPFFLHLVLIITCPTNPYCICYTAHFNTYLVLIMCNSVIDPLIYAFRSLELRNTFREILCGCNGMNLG

Row | Compound | IC50 | Ki
26 | CN1[C@@H]2CC[C@H]1C[C@@H](OC(c1ccccc1)c1ccccc1)C2 [BENZTROPINE] | Not Active | 
27 | CN1CCN(C2=Nc3cc(Cl)ccc3Nc3ccccc32)CC1 [CLOZAPINE] | Not Active | 
28 | OCCOCCN1CCN(C2=Nc3ccccc3Sc3ccccc32)CC1 [QUETIAPINE] | Not Active | 
29 | C[S+]([O-])c1ccc(-c2nc(-c3ccncc3)c(-c3ccc(F)cc3)[nH]2)cc1 (centres undefined) [SB-203580] | Not Active | 
30 | O=C1C[C@@H]2OCC=C3CN4CC[C@]56c7ccccc7N1[C@H]5[C@H]2[C@H]3C[C@H]46 [STRYCHNINE] | Not Active | 
31 | C[N+](C)(C)CCOC(=O)CCC(=O)OCC[N+](C)(C)C.[Cl-].[Cl-] [SUCCINYLCHOLINE CHLORIDE] | Not Active | 
32 | Nc1ccc(S(=O)(=O)NC(=O)c2ccccc2)cc1 [SULFABENZAMIDE] | Not Active | 
33 | O=c1[nH]c(=O)n(C2CCCO2)cc1F (centres undefined) [TEGAFUR] | Not Active | 
34 | CC(=N)S [THIOACETAMIDE] | Not Active | 
35 | Cc1ccc(C(=O)c2ccc(CC(=O)O)n2C)cc1 [TOLMETIN] | Not Active | 
36 | CC(=O)OCC(COC(C)=O)OC(C)=O [TRIACETIN] | Not Active | 
37 | CN1CCN(CCCN2c3ccccc3Sc3ccc(C(F)(F)F)cc32)CC1 [TRIFLUOPERAZINE] | Not Active | 
38 | TRANSPLATIN | Not Active | Not Active
39 | ZIRCONIUM(IV) CHLORIDE | Not Active | Not Active

The compounds below were run against Platelet-activating factor receptor (Homo sapiens, UniProt P25105). Details: not given.
Type: tissue-based

Chain of Platelet-activating factor receptor (P25105 whole entry): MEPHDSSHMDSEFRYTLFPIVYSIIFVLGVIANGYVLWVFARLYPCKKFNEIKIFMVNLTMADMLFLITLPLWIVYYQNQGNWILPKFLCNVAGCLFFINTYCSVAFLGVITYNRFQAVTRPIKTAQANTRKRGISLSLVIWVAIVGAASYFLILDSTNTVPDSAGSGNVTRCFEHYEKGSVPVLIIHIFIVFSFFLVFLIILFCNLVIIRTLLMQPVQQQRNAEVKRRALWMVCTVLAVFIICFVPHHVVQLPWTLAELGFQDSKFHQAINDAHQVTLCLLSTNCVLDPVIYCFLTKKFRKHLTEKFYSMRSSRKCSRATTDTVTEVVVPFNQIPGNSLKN

Row | Compound | IC50 | Ki
40 | CN1[C@@H]2CC[C@H]1C[C@@H](OC(c1ccccc1)c1ccccc1)C2 [BENZTROPINE] | Not Active | 
41 | CN1CCN(C2=Nc3cc(Cl)ccc3Nc3ccccc32)CC1 [CLOZAPINE] | Not Active | 
42 | OCCOCCN1CCN(C2=Nc3ccccc3Sc3ccccc32)CC1 [QUETIAPINE] | Not Active | 
43 | C[S+]([O-])c1ccc(-c2nc(-c3ccncc3)c(-c3ccc(F)cc3)[nH]2)cc1 (centres undefined) [SB-203580] | Not Active | 
44 | O=C1C[C@@H]2OCC=C3CN4CC[C@]56c7ccccc7N1[C@H]5[C@H]2[C@H]3C[C@H]46 [STRYCHNINE] | Not Active | 
45 | C[N+](C)(C)CCOC(=O)CCC(=O)OCC[N+](C)(C)C.[Cl-].[Cl-] [SUCCINYLCHOLINE CHLORIDE] | Not Active | 
46 | Nc1ccc(S(=O)(=O)NC(=O)c2ccccc2)cc1 [SULFABENZAMIDE] | Not Active | 
47 | O=c1[nH]c(=O)n(C2CCCO2)cc1F (centres undefined) [TEGAFUR] | Not Active | 
48 | CC(=N)S [THIOACETAMIDE] | Not Active | 
49 | Cc1ccc(C(=O)c2ccc(CC(=O)O)n2C)cc1 [TOLMETIN] | Not Active | 
50 | CC(=O)OCC(COC(C)=O)OC(C)=O [TRIACETIN] | Not Active | 
51 | CN1CCN(CCCN2c3ccccc3Sc3ccc(C(F)(F)F)cc32)CC1 [TRIFLUOPERAZINE] | Not Active | 
52 | TRANSPLATIN | Not Active | Not Active
53 | ZIRCONIUM(IV) CHLORIDE | Not Active | Not Active

What follows are compounds tested against Matrix metalloproteinase-9 (Homo sapiens, UniProt P14780). Details: not given.
Type: cell-based

Chain of Matrix metalloproteinase-9 (P14780 whole entry): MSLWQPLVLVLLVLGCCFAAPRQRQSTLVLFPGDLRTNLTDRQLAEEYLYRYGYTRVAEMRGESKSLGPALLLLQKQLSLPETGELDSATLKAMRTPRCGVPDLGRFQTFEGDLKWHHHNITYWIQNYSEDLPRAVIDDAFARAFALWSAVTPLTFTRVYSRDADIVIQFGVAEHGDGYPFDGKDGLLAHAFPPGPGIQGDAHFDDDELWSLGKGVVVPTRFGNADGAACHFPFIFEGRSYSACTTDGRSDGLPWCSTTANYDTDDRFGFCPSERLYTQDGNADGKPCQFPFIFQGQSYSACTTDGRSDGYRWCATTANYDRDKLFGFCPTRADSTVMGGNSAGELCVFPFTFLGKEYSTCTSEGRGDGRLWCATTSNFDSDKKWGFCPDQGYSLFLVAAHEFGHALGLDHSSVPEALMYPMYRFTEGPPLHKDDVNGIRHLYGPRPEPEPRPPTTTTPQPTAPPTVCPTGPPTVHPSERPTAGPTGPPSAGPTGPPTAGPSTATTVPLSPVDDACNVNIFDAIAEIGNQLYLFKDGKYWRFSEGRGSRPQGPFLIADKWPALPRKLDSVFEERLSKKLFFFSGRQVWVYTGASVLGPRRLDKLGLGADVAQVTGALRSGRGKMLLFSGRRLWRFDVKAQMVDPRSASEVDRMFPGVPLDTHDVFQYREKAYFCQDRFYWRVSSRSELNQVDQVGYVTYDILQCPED

Row | Compound | IC50 | Ki
54 | CN1[C@@H]2CC[C@H]1C[C@@H](OC(c1ccccc1)c1ccccc1)C2 [BENZTROPINE] | Not Active | 
55 | CN1CCN(C2=Nc3cc(Cl)ccc3Nc3ccccc32)CC1 [CLOZAPINE] | Not Active | 
56 | OCCOCCN1CCN(C2=Nc3ccccc3Sc3ccccc32)CC1 [QUETIAPINE] | Not Active | 
57 | C[S+]([O-])c1ccc(-c2nc(-c3ccncc3)c(-c3ccc(F)cc3)[nH]2)cc1 (centres undefined) [SB-203580] | Not Active | 
58 | O=C1C[C@@H]2OCC=C3CN4CC[C@]56c7ccccc7N1[C@H]5[C@H]2[C@H]3C[C@H]46 [STRYCHNINE] | Not Active | 
59 | C[N+](C)(C)CCOC(=O)CCC(=O)OCC[N+](C)(C)C.[Cl-].[Cl-] [SUCCINYLCHOLINE CHLORIDE] | Not Active | 
60 | Nc1ccc(S(=O)(=O)NC(=O)c2ccccc2)cc1 [SULFABENZAMIDE] | Not Active | 
61 | O=c1[nH]c(=O)n(C2CCCO2)cc1F (centres undefined) [TEGAFUR] | Not Active | 
62 | CC(=N)S [THIOACETAMIDE] | Not Active | 
63 | Cc1ccc(C(=O)c2ccc(CC(=O)O)n2C)cc1 [TOLMETIN] | Not Active | 
64 | CC(=O)OCC(COC(C)=O)OC(C)=O [TRIACETIN] | Not Active | 
65 | CN1CCN(CCCN2c3ccccc3Sc3ccc(C(F)(F)F)cc32)CC1 [TRIFLUOPERAZINE] | Not Active | 
66 | TRANSPLATIN | Not Active | Not Active
67 | ZIRCONIUM(IV) CHLORIDE | Not Active | Not Active

The compounds below were run against T2, Adenosine receptor A1 (Homo sapiens, UniProt P30542). Details: cho.
T2 sequence (P30542 whole entry): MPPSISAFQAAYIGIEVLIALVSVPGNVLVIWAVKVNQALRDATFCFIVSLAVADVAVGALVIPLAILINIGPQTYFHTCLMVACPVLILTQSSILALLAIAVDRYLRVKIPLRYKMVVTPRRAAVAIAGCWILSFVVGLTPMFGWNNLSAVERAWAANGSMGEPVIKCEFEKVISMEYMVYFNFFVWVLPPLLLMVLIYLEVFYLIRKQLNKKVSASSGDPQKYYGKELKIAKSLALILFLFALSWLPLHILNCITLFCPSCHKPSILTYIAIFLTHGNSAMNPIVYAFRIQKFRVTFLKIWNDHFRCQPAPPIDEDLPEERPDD
Type: cell membranes, CHO, Membrane

Row | Compound | IC50 | Ki
68 | CN1[C@@H]2CC[C@H]1C[C@@H](OC(c1ccccc1)c1ccccc1)C2 [BENZTROPINE] | Not Active | 
69 | CN1CCN(C2=Nc3cc(Cl)ccc3Nc3ccccc32)CC1 [CLOZAPINE] | Not Active | 
70 | OCCOCCN1CCN(C2=Nc3ccccc3Sc3ccccc32)CC1 [QUETIAPINE] | Not Active | 
71 | O=C1C[C@@H]2OCC=C3CN4CC[C@]56c7ccccc7N1[C@H]5[C@H]2[C@H]3C[C@H]46 [STRYCHNINE] | Not Active | 
72 | C[N+](C)(C)CCOC(=O)CCC(=O)OCC[N+](C)(C)C.[Cl-].[Cl-] [SUCCINYLCHOLINE CHLORIDE] | Not Active | 
73 | Nc1ccc(S(=O)(=O)NC(=O)c2ccccc2)cc1 [SULFABENZAMIDE] | Not Active | 
74 | O=c1[nH]c(=O)n(C2CCCO2)cc1F (centres undefined) [TEGAFUR] | Not Active | 
75 | CC(=N)S [THIOACETAMIDE] | Not Active | 
76 | Cc1ccc(C(=O)c2ccc(CC(=O)O)n2C)cc1 [TOLMETIN] | Not Active | 
77 | CC(=O)OCC(COC(C)=O)OC(C)=O [TRIACETIN] | Not Active | 
78 | CN1CCN(CCCN2c3ccccc3Sc3ccc(C(F)(F)F)cc32)CC1 [TRIFLUOPERAZINE] | Not Active | 
79 | TRANSPLATIN | Not Active | Not Active
80 | ZIRCONIUM(IV) CHLORIDE | Not Active | Not Active

Same assay, conditions: read-out: IC50

Row | Compound | IC50 [µM]
81 | C[S+]([O-])c1ccc(-c2nc(-c3ccncc3)c(-c3ccc(F)cc3)[nH]2)cc1 (centres undefined) [SB-203580] | 2.95

Same assay, conditions: read-out: Ki

Row | Compound | Ki [µM]
82 | C[S+]([O-])c1ccc(-c2nc(-c3ccncc3)c(-c3ccc(F)cc3)[nH]2)cc1 (centres undefined) [SB-203580] | 1.72
